Test results from BindingDB's records for patent US12344612 (Genentech, 2025).

Target: T1, Receptor-interacting serine/threonine-protein kinase 1 (Homo sapiens, UniProt Q13546)
T1 sequence (Q13546 whole entry): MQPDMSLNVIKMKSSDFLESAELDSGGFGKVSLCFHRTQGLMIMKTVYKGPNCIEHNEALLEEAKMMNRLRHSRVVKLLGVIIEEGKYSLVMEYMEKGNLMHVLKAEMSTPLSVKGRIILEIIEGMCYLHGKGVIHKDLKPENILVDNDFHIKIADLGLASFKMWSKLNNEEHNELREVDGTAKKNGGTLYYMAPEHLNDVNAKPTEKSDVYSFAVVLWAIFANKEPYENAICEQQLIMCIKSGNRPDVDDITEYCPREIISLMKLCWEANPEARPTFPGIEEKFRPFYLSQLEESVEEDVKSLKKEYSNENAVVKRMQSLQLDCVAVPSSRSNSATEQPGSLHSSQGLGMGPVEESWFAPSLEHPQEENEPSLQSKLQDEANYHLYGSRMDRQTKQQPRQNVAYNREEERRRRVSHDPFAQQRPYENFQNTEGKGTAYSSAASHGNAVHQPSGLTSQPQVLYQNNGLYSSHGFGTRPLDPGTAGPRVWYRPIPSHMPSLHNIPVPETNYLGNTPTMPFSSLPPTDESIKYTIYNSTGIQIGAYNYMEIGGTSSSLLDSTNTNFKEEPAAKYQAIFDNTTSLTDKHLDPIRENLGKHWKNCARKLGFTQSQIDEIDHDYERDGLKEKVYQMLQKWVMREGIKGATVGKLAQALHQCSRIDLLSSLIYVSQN
Test: Not found
From the text: Not found

Ki: 51 nM
SMILES: O=C(c1nc2n(n1)CC[C@H]2c1ccccc1)C1CC1 (single isomer, unassigned) [US12344612, Example 10]
